This is an account of results in ChEMBL document CHEMBL4665541, “Search for new therapeutic options for the uncommon pathogen Mycobacterium chimaera: an open drug discovery approach” (Lancet Microbe, 2021).

Common to all, as to format: functional, organism-based
Parameters in all cases: conc 20 uM

The subject of experiment [1] is Mycobacterium intracellulare subsp. chimaera. As to the kind of experiment: (§1) Inhibition of mycobacterial growth using the resazurin microtitre cell viability assay (REMA), compounds at final concentration of 20 µM (2% v/v DMSO). Hits were classed as compounds that inhibited bacterial growth by 70% or more compared to drug-free controls. Conditions: NCTC13781. On the technique in general: Alamar Blue is a resazurin reagent that responds to reducing activity.

Experiment [2] has as its system Mycobacterium tuberculosis. The experiment is described as §1. Conditions: H37Rv.
Experiment [3] deals with Mycobacteroides abscessus. Described as §1. To be noted: ATCC19977.

On to MMV687189, for which the results for the Survival in experiment [1], in experiment [2] and in experiment [3] were 98.5%, 58.1% and 104%, respectively.
Consider MMV689244, for which the Survival is 107% in experiment [1], 90.1% in experiment [2] and 115% in experiment [3].
Consider MMV676501, for which the Survival in experiment [1] was 91.8%; in experiment [2], 14%; in experiment [3], 104%.
On to MMV001561, for which the Survival in experiment [1] was 103%; in experiment [2], 91.3%; in experiment [3], 103%.
On to MMV407834, for which the Survival is 114% in experiment [1], 97% in experiment [2] and 113% in experiment [3].
Consider MMV202553, for which the figures for the Survival in experiment [1], in experiment [2] and in experiment [3] were 100%, 83.4% and 109%, respectively.
In the case of MMV687729, the Survival in experiment [1] is 30.5%; in experiment [2] it was 13.1%; in experiment [3], 112%.
The like results for MMV020512 were, in that order, 109%, 104% and 116%.
The like results for MMV688550 were, in that order, 99%, 95.8% and 105%.
Take MMV688766: the Survival was 104% in experiment [1], 88.4% in experiment [2] and 111% in experiment [3].
For MMV011229, the Survival in experiment [1] is 94%; in experiment [2] it was 92.6%; in experiment [3], 97.3%.
For the substance MMV019742, the Survival in experiment [1] is 97.5%; in experiment [2] it was 96%; in experiment [3], 103%.
The like results for MMV688273 were, in that order, 106%, 97.8% and 100%.
With MMV687248, the Survival in experiment [1] is 110%; in experiment [2], 31.8%; in experiment [3], 110%.
For the substance MMV688514, the Survival is 100% in experiment [1], 91.7% in experiment [2] and 111% in experiment [3].
The like results for MMV020517 were, in that order, 94%, 79.9% and 123%.
Take MMV688125: the Survival in experiment [1] is 107%; in experiment [2], 13.8%; in experiment [3] it was 114%.
On to MMV676604, for which the Survival in experiment [1] was 104%; in experiment [2] it was 95%; in experiment [3], 119%.
MMV676600: the Survival was 90.1% in experiment [1], 91.1% in experiment [2] and 125% in experiment [3].
As for MMV676449, the Survival in experiment [1] was 84.8%; in experiment [2], 90.2%; in experiment [3], 102%.
For MMV000907, the Survival is 98.3% in experiment [1], 97.1% in experiment [2] and 111% in experiment [3].
As for MMV689437, the Survival in experiment [1] was 106%; in experiment [2], 104%; in experiment [3], 99%.
As to MMV676877, the Survival in experiment [1] was 106%; in experiment [2], 90.2%; in experiment [3] it was 107%.
With MMV688761, the results for the Survival in experiment [1], in experiment [2] and in experiment [3] were 108%, 108% and 113%, respectively.
Regarding MMV688557, the Survival in experiment [1] was 101%; in experiment [2], 95.7%; in experiment [3], 101%.
For the substance MMV047015, the Survival is 85.3% in experiment [1], 52.2% in experiment [2] and 111% in experiment [3].
As to MMV676380, the values for the Survival in experiment [1], in experiment [2] and in experiment [3] were 86.9%, 97% and 102%, respectively.
Consider MMV687172, for which the figures for the Survival in experiment [1], in experiment [2] and in experiment [3] were 101%, 129% and 98.3%, respectively.
MMV676439: the Survival in experiment [1] was 34.7%; in experiment [2] it was 91.7%; in experiment [3], 114%.
The like results for MMV676478 were, in that order, 96.5%, 44.5% and 111%.
With MMV688852, the Survival was 103% in experiment [1], 107% in experiment [2] and 115% in experiment [3].
